Consider twelve molecules from patent US9926293B2, “Multivalent RAS binding compounds” (THE TRUSTEES OF COLUMBIA UNIVERSITY IN THE CITY OF NEW YORK, priority 2014, dated 2018).

A value given as a limit tells only on which side of the number the result lay.

One may read the half-life as how long it takes for the measured level to halve. Read a low half-life as fast loss. In general, Kd refers to the constant that tells how readily two partners part at equilibrium.

Data set [1] relates to Mouse embryonic fibroblasts (MEFs), null Hras and Nras, floxed Kras. In words: Growth inhibition of MEFs with floxed Kras locus. The data set is classed as cell-based. The note with it: 600 nM, 6 days, vs DMSO. Here is the method:
In parallel, cells were treated with DMSO or 4OHT at 600 nM for 6 days. […] Cells were then lysed and treated with a pro-fluorescent caspase 3/7 substrate (rhodamine 110 bis-N-CBZ-L-aspartyl-L-gluramyl-L-valyl-aspartic acid amide) for 16 hours and measured.
All cell culture assays were incubated at 37° C., 5% CO2 in media containing Dulbecco's Modified Eagle Medium (DMEM) with 10% fetal bovine serum (FBS) and 1% penicillin-streptomycin (PS). 384-well format for EC50 determination: cells were trypsinized, counted, and seeded into 384-well plates at 1,000 cells/well. After 12-16 hours, compounds (as 50 mM stocks in DMSO) were arrayed in an 8- or 16-point dilution series in 384-well polypropylene plates. Compound solutions were transferred at a 1:5 dilution into the assay plates. After 48 hours, a 50% Alamar blue solution was added to a final concentration of 10% Alamar blue. After 6 hours of incubation, fluorescence intensity was determined using a Victor3 plate reader (Perkin Elmer) with a 535 nm excitation filter and a 590 nm emission filter. All compound measurements were performed in triplicate. For experiments performed in 6-well format, cells were trypsinized, counted, and seeded into 6-well plates at 200,000 cells per well 16 h prior to use. […] After 24 hours, cells were trypsinized and viability was determined using Trypan Blue exclusion assay. […]

The next data set in a line: Microsomal stability. It counts as in vitro ADME. The note with it: pH 7.4; mouse liver microsomes, 0.5 μM. Here is the method: Test compounds (0.5 μM) were incubated at 37° C. for up to 45 minutes in 50 mM of potassium phosphate buffer (pH 7.4) containing microsomal protein (0.5 mg/mL) and an NADPH generating system (0.34 mg/mL β-nicotinamide adenine dinucleotide phosphate (NADP), 1.56 mg/mL glucose-6-phosphate, 1.2 units/mL glucose-6-phosphate dehydrogenase). At 0, 5, 15, 30 and 45 minute intervals an aliquot was taken and quenched with acetonitrile (ACN) containing an internal standard. No-cofactor controls at 45 minutes were prepared. Following completion of the experimentation, the samples were analyzed by LC-MS/MS using a Shimadzu HPLC and an Applied Biosystem AP 14000.
A general note: Liver microsomes are vesicles of endoplasmic reticulum, rich in cytochrome P450 enzymes.

The next data set has as its target T1, GppNHp-loaded KRASG12D (Homo sapiens, UniProt P01116, G12D).
T1 construct: made in house; host or cells: Escherichia coli BL21-Gold (DE3)
The experiment in a line: Microscale thermophoresis, lysine NT-647-labeled GppNHp-loaded KRAS^G12D. The note with it: MST, GppNHp-bound KRAS^G12D, Table 6; read-out: KD. The data set is classed as binding. Here is the method:
Microscale Thermophoresis
KRAS^G12D (250 μM) in 25 mM HEPES, 100 mM sodium chloride, 2 mM TCEP with 20 mM EDTA and 1 mM GppNHp was shaken at 220 rpm at 30° C. to remove the endogenous nucleotide, The solution was placed on ice for 2 minutes prior to the addition of 65 mM MgCl2. After an additional 10 minutes incubation on ice, 200 uL of a 10 uM solution of KRAS^G12D was combined with 200 uL of a 20 uM solution of NT-647-NHS-ester dye (from a 652.4 μM stock). The protein/dye mixture was rotated at 4° C. for 30 minutes, before being separated from the excess dye and buffer exchanged into 25 mM Tris, 100 mM sodium chloride, 2 mM TCEP, and 5 mM MgCl2 via a nap-5 column. The test compounds were arrayed across a 16-point dilution series consisting of 1.5% DMSO with 25 mM Tris, 100 mM NaCl, 2 mM TCEP, 5 mM MgCl2 and 0.05% tween-20. Thermophoretic movement of the fluorescently labeled protein with the inhibitors was performed using a Monolith NT.115 (Nanotemper Technologies). RALA and RHOA were purchased commercially from Abcam (RALA CN:ab102555, RHOA CN:ab101594).
In another set of experiments, the top D38-A59 two-site multivalent compounds were evaluated by a RAS pulldown using the RAS binding domain of CRAF (the top two hits are shown in FIG. 14D). This abrogation of binding between RAS and its effector protein was also evident in the RAS-RALGDS interaction (FIG. 14E). To quantify the binding of the two-site compounds to RAS, MST was performed again using lysine NT-647-labeled, GppNHp-loaded KRAS^G12D. […] The third (Y32) site was extended into (compound 34MEW95) using this scaffold.
Docking scores and dissociation constants for binding to GppNHp-bound KRAS^G12D (PDB:4DSN) were measured as set forth above for additional 2- and 3-site compounds by microscale thermophoresis.

Another data set concerns the target T2, KRAS^G12D⋅BODIPY-GTP (Homo sapiens, UniProt P01116, G12D).
T2 construct: made in house; host or cells: Escherichia coli BL21-Gold (DE3)
In words: Nucleotide displacement assay with BODIPY-GTP (fluorescence polarization). The data set is classed as binding. The note with it: 2.5 μM KRAS^G12D⋅BODIPY-GTP, 12 hours. Here is the method: Nucleotide Displacement Assay
To investigate whether compounds were binding to the same site as GTP, a fluorescent polarization assay was implemented using fluorescently-labeled BODIPY-GTP as a probe. When BODIPY-GTP is free in solution, it has a low polarization. However, when BODIPY-GTP is bound to K-Ras protein, the polarization intensity is high. K-Ras G12D bound to BODIPY-GTP was incubated with different concentrations of ligand or unlabeled GTP or GDP in buffer containing 25 mM Tris-HCl, pH 8, 100 mM NaCl, 5 mM MgCl2, 1 mM EDTA, and 1 mM TCEP. The final concentration of K-Ras G12D bound to BODIPY-GTP in each well was 2.5 μM. The samples were incubated at 25° C. for 12 hours with gentle shaking to allow for the slow intrinsic nucleotide release reaction to take place. The change in fluorescence was measured on a Victor3 plate reader (Perkin Elmer) in 384-well black low-volume plates (Corning, Inc.). The BODIPY-GTP fluorophore was excited at 485 nm and emission was monitored at 535 nm.
In general terms: In fluorescence polarisation assays a small probe gives low polarisation when free and higher when bound to something large.

The test system of data set [2] is caspases 3 and 7 in HT-1080 (NRAS^Q61K) cells. The experiment in a line: Caspase 3/7 activation assay. It counts as cell-based. The note with it: staurosporine 5 μM, 24 hours. Here is the method:
Caspase 3/7 Activation Assay
HT-1080 cells were seeded into 384-well plates at 1,000 cells/well. After 12-16 hours, compounds (as 50 mM stocks in DMSO) were arrayed in a dilution series in 384-well polypropylene plates. Compound solutions were transferred at a 1:5 dilution into the assay plates for a total volume of 40 μL. After 24 hours, 8 μL of a 1:100 solution of rhodamine 110 bis-(N-CBZ-1-aspartyl-1-glutamyl-1-valyl-aspartic acid amide) to lysis buffer (APO-1, Promega) was added and the plate was wrapped in aluminum foil and incubated at room temperature for 16 hours. Fluorescence intensity was then determined using a Victor3 plate reader (Perkin Elmer) with a 490 nm excitation filter and a 535 nm emission filter. A viability curve was performed in parallel with the same incubation time using the procedure described in the “cell viability assays” section.

T1 sequence (P01116 1-169 isoform P01116-2 G12D): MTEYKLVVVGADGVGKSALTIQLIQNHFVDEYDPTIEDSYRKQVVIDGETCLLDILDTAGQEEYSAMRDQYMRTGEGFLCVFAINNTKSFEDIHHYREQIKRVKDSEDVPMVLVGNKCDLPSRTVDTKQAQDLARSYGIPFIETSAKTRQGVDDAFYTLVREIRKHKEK
T2 sequence (P01116 1-169 isoform P01116-2 G12D): as above

Turning to “4-hydroxytamoxifen [Compound 4OHT, reference compound]”, in data set [1], the growth inhibition is reported as 91%.
The molecule `CCOc1ccc2ccc(=O)oc2c1` [7-ethoxycoumarin, reference compound] yielded a half-life at 0.5 μM in “Microsomal stability” of 3.9 min.
For `O=C(NCCCn1cc(-c2c(C(F)(F)F)cccc2C(F)(F)F)c2cc(CN3CCN(Cc4cc(C(F)(F)F)cc(C(F)(F)F)c4)CC3)ccc21)C1CNCCN1` (stereo not shown) [Compound 32MEW56, N-(3-(5-((4-(3,5-bis(trifluoromethyl)benzyl)piperazin-1-yl)methyl)-3-(2,6-bis(trifluoromethyl)phenyl)-1H-indol-1-yl)propyl)piperazine-2-carboxamide], on GppNHp-loaded KRASG12D, the Kd was more than 10000 µM.
Still for that read-out and setting: the value for `COc1ccccc1-c1cn(CCCNC(=O)C2(N)CCNCC2)c2cccc(CN3CCN(CCOc4ccc(Cl)cc4)CC3)c12` [Compound 34MEW45, 4-amino-N-(3-(4-((4-(2-(4-chlorophenoxy)ethyl)piperazin-1-yl)methyl)-3-(2-methoxyphenyl)-1H-indol-1-yl)propyl)piperidine-4-carboxamide] was 1350 µM; that for `O=C(NCCCn1cc(-c2cccc(F)c2)c2c(CN3CCN(CCOc4ccc(Cl)cc4)CC3)cccc21)C1(NCc2ccc(OCc3ccc(F)cc3)c(Cl)c2)CCNCC1` [Compound 35MEW12, 4-((3-chloro-4-((4-fluorobenzyl)oxy)benzyl)amino)-N-(3-(4-((4-(2-(4-chlorophenoxy)ethyl)piperazin-1-yl)methyl)-3-(3-fluorophenyl)-1H-indol-1-yl)propyl)piperidine-4-carboxamide] was 36 µM.
Same read-out and setting: in the case of `COc1cc(CN2CCN(Cc3ccc4c(c3)c(-c3ccc(OC)cc3OC)cn4CCCNC(=O)C3CNCCN3)CC2)cc(OC)c1` (stereo not shown) [Compound 36MEW3, N-(3-(5-((4-(3,5-dimethoxybenzyl)piperazin-1-yl)methyl)-3-(2,4-dimethoxyphenyl)-1H-indol-1-yl)propyl)piperazine-2-carboxamide] it was 230 µM; in that of `COc1cc(COc2ccc(CNC3(C(=O)NCCCn4cc(-c5ccc(OC(F)(F)F)cc5)c5cc(CN6CCN(Cc7c(Cl)cccc7Cl)CC6)ccc54)CCNCC3)cc2OC)cc(OC)c1` [Compound 43MEW63], 26 µM.
On to `O=C(NCCCn1cc(-c2ccc(OC(F)(F)F)cc2)c2cc(CN3CCN(Cc4c(Cl)cccc4Cl)CC3)ccc21)C1(NCc2ccc(OCc3cc(C(F)(F)F)cc(C(F)(F)F)c3)cc2)CCNCC1` [Compound 43MEW65, 4-((4-((3,5-bis(trifluoromethyl)benzyl)oxy)benzyl)amino)-N-(3-(5-((4-(2,6-dichlorobenzyl)piperazin-1-yl)methyl)-3-(4-(trifluoromethoxy)phenyl)-1H-indol-1-yl)propyl)piperidine-4-carboxamide], for which the dissociation constant (Kd) on GppNHp-loaded KRASG12D is 7.9 µM.
As for `CC(C)Oc1ccccc1-c1ccc(CNC2(C(=O)NCCCn3cc(-c4ccc(OC(F)(F)F)cc4)c4cc(CN5CCN(Cc6c(Cl)cccc6Cl)CC5)ccc43)CCNCC2)nc1` [Compound 43MEW73, N-(3-(5-((4-(2,6-dichlorobenzyl)piperazin-1-yl)methyl)-3-(4-(trifluoromethoxy)phenyl)-1H-indol-1-yl)propyl)-4-(((5-(2-isopropoxyphenyl)pyridin-2-yl)methyl)amino)piperidine-4-carboxamide], the Kd on GppNHp-loaded KRASG12D turned out to be 24 µM.
Consider `Nc1nc2c(ncn2[C@@H]2O[C@H](COP(=O)(O)OP(=O)(O)O)[C@@H](O)[C@H]2O)c(=O)[nH]1` [GDP], for which the “displacement of BODIPY-GTP” value at KRAS^G12D⋅BODIPY-GTP was “can displace”.
Same read-out and setting: the value for `Nc1nc2c(ncn2[C@@H]2O[C@H](COP(=O)(O)OP(=O)(O)OP(=O)(O)O)[C@@H](O)[C@H]2O)c(=O)[nH]1` [GTP] was “can displace”.
Turning to `CN[C@@H]1C[C@H]2O[C@@](C)([C@@H]1OC)n1c3ccccc3c3c4c(c5c6ccccc6n2c5c31)C(=O)NC4` [staurosporine, reference compound], the “fluorescence of caspase 3/7 substrate” value in data set [2] (31MEW44 5 μM, 34MEW43 10 μM, 34MEW95 5 μM) is reported as “Increased fluorescence”; in data set [2] (31MEW44 2.5 and 5 μM), “Increased fluorescence”.
